Experimental data as given in article PMC11672137, “High-Affinity Lectin Ligands Enable the Detection of Pathogenic Pseudomonas aeruginosa Biofilms: Implications for Diagnostics and Therapy” (JACS Au, 2024).

Target: T1, LecA (Pseudomonas aeruginosa, UniProt Q05097)
T1 construct: made in house
Test: Competitive binding assay based on fluorescence polarization, LecA
Description: Next, binding of the optimized divalent ligand 17 and its synthetic precursor 16 to LecA was evaluated by fluorescence polarization-based (FP) assays,[47] SPR, and ITC. […] Therefore, fluorescent ligand 17 was analyzed in a direct binding experiment by FP. […] The dissociation constants for 16 were 47.2 ± 11.3 nM (ITC) and 47.8 ± 44.1 nM (steady-state SPR), while for 17, the values were 64.1 ± 31.1 nM and 79.3 ± 24.9 nM (steady-state SPR). For the SPR experiments, Kd was also determined by single-cycle kinetic analysis resulting in approximately five times higher affinity, but the data have limited reliability due to suboptimal fit for the kinetic curves (Figures S13B and S14).[58]−[60] […]
137 mM NaCl, 2.6 mM KCl at pH 7.4 supplemented with 1 mM CaCl2). Protein concentration was determined by UV spectroscopy at 280 nm using a molar extinction coefficient of 27 960 M-1 cm-1 for LecA and 6 990 M-1 cm-1 for LecB.
All synthesized alkyne precursors (S5m, S5p, S6m, S6p, S11, 25, S16, S22 and S24) were analysed in the previously established competitive binding assays based on fluorescence polarization (Figure S2).18,19 Galactose-based compounds (S5m, S5p, S6m, S6p, S11) were evaluated against LecA and C-glycoside-based compounds […] and S16 against LecB. […]
PheraStar FS plate reader (BMG Labtech GmbH, Germany) with excitation filters at 485 nm and emission filters at 535 nm. […]

T1 sequence (Q05097 whole entry): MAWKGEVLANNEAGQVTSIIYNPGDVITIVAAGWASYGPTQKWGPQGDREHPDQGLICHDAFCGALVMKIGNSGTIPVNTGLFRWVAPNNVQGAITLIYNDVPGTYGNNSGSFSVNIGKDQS

Compound `C#CCCN(Cc1ccc(NC(=O)CCc2ccc(O[C@@H]3O[C@H](CO)[C@H](O)[C@H](O)[C@H]3O)cc2)cc1)Cc1ccc(NC(=O)CCc2ccc(O[C@@H]3O[C@H](CO)[C@H](O)[C@H](O)[C@H]3O)cc2)cc1` [compound 16] has an IC50 of 5.6 ± 2.2 µM.
